Experimental data taken from ChEMBL document CHEMBL3885881, “DrugMatrix”.

Organism: Rattus norvegicus
Experiment: DrugMatrix - Regimen: Daily Repeat
Type: toxicity, organism-based, Sprague-Dawley
Set-up: regimen Daily Repeat, gender Male, age 6-8 weeks
Conditions: in vivo, po, route oral GAVAGE, […]; for ABSOLUTE BASOPHIL / ABSOLUTE EOSINOPHIL / ABSOLUTE LYMPHOCYTE / ABSOLUTE MONOCYTE / ABSOLUTE SEGMENTED NEUTROPHIL / BASOPHIL / EOSINOPHIL / ERYTHROCYTE COUNT / HEMATOCRIT / HEMOGLOBIN / LEUKOCYTE COUNT / LYMPHOCYTE / MEAN CORPUSCULAR HEMOGLOBIN / MEAN CORPUSCULAR HEMOGLOBIN CONCENTRATION / MEAN CORPUSCULAR VOLUME / MONOCYTE / NEUTROPHIL / NUCLEATED RED BLOOD CELLS / PLATELET COUNT: tissue Blood; for ALANINE AMINOTRANSFERASE / ALBUMIN / ALKALINE PHOSPHATASE / ASPARTATE AMINOTRANSFERASE / BLOOD UREA NITROGEN / CARBON DIOXIDE / CHLORIDE / CHOLESTEROL / CREATINE PHOSPHOKINASE / CREATININE / GLUCOSE / LACTATE DEHYDROGENASE / LIPASE / PHOSPHORUS / POTASSIUM / SODIUM / TOTAL BILIRUBIN / TOTAL PROTEIN / URIC ACID: tissue Plasma
[1] = 0 mg/kg, 72 h, dose level Control, time 3 day
[2] = 0 mg/kg, 120 h, dose level Control, time 5 day
[3] = 6 mg/kg, 72 h, dose level Low, time 3 day

CO[C@H]1O[C@@H]2O[C@@]3(C)CC[C@H]4[C@H](C)CC[C@@H]([C@H]1C)[C@@]24OO3
ABSOLUTE BASOPHIL [1]: 0 CELLS/uL
ABSOLUTE EOSINOPHIL [1]: 138.5 CELLS/uL
ABSOLUTE LYMPHOCYTE [1]: 13978.67 CELLS/uL
ABSOLUTE MONOCYTE [1]: 391 CELLS/uL
ABSOLUTE SEGMENTED NEUTROPHIL [1]: 1608.5 CELLS/uL
BASOPHIL [1]: 0%
EOSINOPHIL [1]: 1%
ERYTHROCYTE COUNT [1]: 5.8 x10E6/uL
HEMATOCRIT [1]: 36.22%
HEMOGLOBIN [1]: 13.65 G/DL
LEUKOCYTE COUNT [1]: 16.12 x10E3/uL
LYMPHOCYTE [1]: 86.67%
MEAN CORPUSCULAR HEMOGLOBIN [1]: 23.58 pg
MEAN CORPUSCULAR HEMOGLOBIN CONCENTRATION [1]: 37.72 G/DL
MEAN CORPUSCULAR VOLUME [1]: 62.52 fL
MONOCYTE [1]: 2.5%
NEUTROPHIL [1]: 9.83%
NUCLEATED RED BLOOD CELLS [1]: 0 /100WBC
PLATELET COUNT [1]: 1214.17 x10E3/uL
ALANINE AMINOTRANSFERASE [1]: 59.5 u/L
ALBUMIN [1]: 4.1 G/DL
ALKALINE PHOSPHATASE [1]: 393.83 u/L
ASPARTATE AMINOTRANSFERASE [1]: 87.83 u/L
BLOOD UREA NITROGEN [1]: 16.33 mg/dL
CARBON DIOXIDE [1]: 28.17 mmol/L
CHLORIDE [1]: 100.83 MEQ/L
CHOLESTEROL [1]: 73.33 mg/dL
CREATINE PHOSPHOKINASE [1]: 398 u/L
CREATININE [1]: 0.2 mg/dL
GLUCOSE [1]: 152.67 mg/dL
LACTATE DEHYDROGENASE [1]: 501.5 u/L
LIPASE [1]: 9.5 u/L
PHOSPHORUS [1]: 10.77 mg/dL
POTASSIUM [1]: 6.44 MEQ/L
SODIUM [1]: 143.4 MEQ/L
TOTAL BILIRUBIN [1]: 0.17 mg/dL
TOTAL PROTEIN [1]: 5.92 G/DL
URIC ACID [1]: 1.68 mg/dL
ABSOLUTE BASOPHIL [2]: 0 CELLS/uL
ABSOLUTE EOSINOPHIL [2]: 183.33 CELLS/uL
ABSOLUTE LYMPHOCYTE [2]: 14952.83 CELLS/uL
ABSOLUTE MONOCYTE [2]: 238.5 CELLS/uL
ABSOLUTE SEGMENTED NEUTROPHIL [2]: 1642 CELLS/uL
BASOPHIL [2]: 0%
EOSINOPHIL [2]: 1%
ERYTHROCYTE COUNT [2]: 5.89 x10E6/uL
HEMATOCRIT [2]: 36.13%
HEMOGLOBIN [2]: 13.37 G/DL
LEUKOCYTE COUNT [2]: 17.02 x10E3/uL
LYMPHOCYTE [2]: 87.17%
MEAN CORPUSCULAR HEMOGLOBIN [2]: 22.73 pg
MEAN CORPUSCULAR HEMOGLOBIN CONCENTRATION [2]: 37.02 G/DL
MEAN CORPUSCULAR VOLUME [2]: 61.45 fL
MONOCYTE [2]: 1.5%
NEUTROPHIL [2]: 10.33%
NUCLEATED RED BLOOD CELLS [2]: 0 /100WBC
PLATELET COUNT [2]: 1183.5 x10E3/uL
ALANINE AMINOTRANSFERASE [2]: 54.83 u/L
ALBUMIN [2]: 4.28 G/DL
ALKALINE PHOSPHATASE [2]: 363.17 u/L
ASPARTATE AMINOTRANSFERASE [2]: 96.83 u/L
BLOOD UREA NITROGEN [2]: 15.67 mg/dL
CARBON DIOXIDE [2]: 26.17 mmol/L
CHLORIDE [2]: 102.67 MEQ/L
CHOLESTEROL [2]: 63.67 mg/dL
CREATINE PHOSPHOKINASE [2]: 594.33 u/L
CREATININE [2]: 0.2 mg/dL
GLUCOSE [2]: 182.33 mg/dL
LACTATE DEHYDROGENASE [2]: 656.5 u/L
LIPASE [2]: 9.33 u/L
PHOSPHORUS [2]: 11.7 mg/dL
POTASSIUM [2]: 5.92 MEQ/L
SODIUM [2]: 142.62 MEQ/L
TOTAL BILIRUBIN [2]: 0.13 mg/dL
TOTAL PROTEIN [2]: 5.85 G/DL
URIC ACID [2]: 1.8 mg/dL
ABSOLUTE BASOPHIL [3]: 0 CELLS/uL
ABSOLUTE EOSINOPHIL [3]: 0 CELLS/uL
ABSOLUTE LYMPHOCYTE [3]: 14690 CELLS/uL
ABSOLUTE MONOCYTE [3]: 490.33 CELLS/uL
ABSOLUTE SEGMENTED NEUTROPHIL [3]: 1319.67 CELLS/uL
BASOPHIL [3]: 0%
EOSINOPHIL [3]: 0%
ERYTHROCYTE COUNT [3]: 5.7 x10E6/uL
HEMATOCRIT [3]: 36.23%
HEMOGLOBIN [3]: 13.63 G/DL
LEUKOCYTE COUNT [3]: 16.5 x10E3/uL
LYMPHOCYTE [3]: 88.67%
MEAN CORPUSCULAR HEMOGLOBIN [3]: 23.93 pg
MEAN CORPUSCULAR HEMOGLOBIN CONCENTRATION [3]: 37.67 G/DL
MEAN CORPUSCULAR VOLUME [3]: 63.6 fL
MONOCYTE [3]: 3%
NEUTROPHIL [3]: 8.33%
NUCLEATED RED BLOOD CELLS [3]: 0 /100WBC
PLATELET COUNT [3]: 1120 x10E3/uL
ALANINE AMINOTRANSFERASE [3]: 66.67 u/L
ALBUMIN [3]: 4.17 G/DL
ALKALINE PHOSPHATASE [3]: 405.67 u/L
ASPARTATE AMINOTRANSFERASE [3]: 88.33 u/L
BLOOD UREA NITROGEN [3]: 16.33 mg/dL
CARBON DIOXIDE [3]: 25.67 mmol/L
CHLORIDE [3]: 103 MEQ/L
CHOLESTEROL [3]: 70.33 mg/dL
CREATINE PHOSPHOKINASE [3]: 249.33 u/L
CREATININE [3]: 0.21 mg/dL
GLUCOSE [3]: 155.33 mg/dL
LACTATE DEHYDROGENASE [3]: 155 u/L
LIPASE [3]: 9.33 u/L
PHOSPHORUS [3]: 11.6 mg/dL
POTASSIUM [3]: 6.23 MEQ/L
SODIUM [3]: 145.23 MEQ/L
TOTAL BILIRUBIN [3]: 0.2 mg/dL
TOTAL PROTEIN [3]: 5.8 G/DL
URIC ACID [3]: 1.47 mg/dL
